The record followed here is US6407098B1, “Fungicidal aza-heterocycloalkenes” (Bayer Aktiengesellschaft, priority 1995, dated 2002).

Each structure is given as a SMILES string.

One data set concerns Venturia inaequalis. In words: Venturia test (apple)/protective. The data set is classed as in vivo. Conditions: protective, active compound concentration 500 ppm, evaluation 12 days after inoculation. Here is the method:
Venturia test (apple)/protective Solvent: 12.5 parts by weight of acetone Emulsifier: 0.3 parts by weight of alkylaryl polyglycol ether To produce a suitable preparation of active compound, 1 part by weight of active compound is mixed with the stated amounts of solvent and emulsifier, and the concentrate is diluted with water to the desired concentration. To test for protective activity, young plants are sprayed with the preparation of active compound until dripping wet. After the spray coating has dried on, the plants are inoculated with an aqueous conidia suspension of the apple scab causative organism Venturia inaequalis and then remain in an incubation cabin at 20° C. and 100% relative atmospheric humidity for 1 day. The plants are then placed in a greenhouse at 20° C. and a relative atmospheric humidity of about 70%. Evaluation is carried out 12 days after the inoculation.

Data set [1] has as its system Erysiphe graminis f.sp. hordei. In words: Erysiphe test (barley)/protective. Conditions: protective, active compound concentration 500 ppm, evaluation 7 days after inoculation. The class given is in vivo. The procedure:
Erysiphe test (barley)/protective Solvent: 12.5 parts by weight of N-methyl-pyrrolidone Emulsifier: 0.3 parts by weight of alkylaryl polyglycol ether To produce a suitable preparation of active compound, 1 part by weight of active compound is mixed with the stated amounts of solvent and emulsifier, and the concentrate is diluted with water to the desired concentration. To test for protective activity, young plants are sprayed with the preparation of active compound at the stated application rate. After the spray coating has dried on, the plants are dusted with spores of Erysiphe graminis f.sp. hordei. The plants are placed in a greenhouse at a temperature of about 20° C. and a relative atmospheric humidity of about 80%, in order to promote the development of powdery mildew pustules. Evaluation is carried out 7 days after the inoculation.

A further data set relates to Sphaerotheca fuliginea. In words: Sphaerotheca test (cucumber)/protective. The class given is in vivo. Conditions: protective, active compound concentration 100 ppm, evaluation 10 days after inoculation. The procedure:
Sphaerotheca test (cucumber)/protective Solvent: 4.7 parts by weight of acetone Emulsifier: 0.3 parts by weight of alkylaryl polyglycol ether To produce a suitable preparation of active compound, 1 part by weight of active compound is mixed with the stated amounts of solvent and emulsifier, and the concentrate is diluted with water to the desired concentration. To test for protective activity, young plants are sprayed with the preparation of active compound. After the spray coating has dried on, the plants are dusted with conidia of the fungus Sphaerotheca fuliginea. The plants are then placed in a greenhouse at 23 to 24° C. and at a relative atmospheric humidity of about 75%. Evaluation is carried out 10 days after the inoculation.

A further data set relates to Podosphaera leucotricha. In words: Podosphaera test (apple)/protective. The data set is classed as in vivo. Conditions: protective, active compound concentration 100 ppm, evaluation 10 days after inoculation. The procedure:
Podosphaera test (apple)/protective Solvent: 4.7 parts by weight of acetone Emulsifier: 0.3 parts by weight of alkylaryl polyglycol ether To produce a suitable preparation of active compound, 1 part by weight of active compound is mixed with the stated amounts of solvent and emulsifier, and the concentrate is diluted with water to the desired concentration. To test for protective activity, young plants are sprayed with the preparation of active compound. After the spray coating has dried on, the plants are inoculated by dusting with conidia of the causative organism of apple mildew (Podosphaera leucotricha). The plants are then placed in a greenhouse at 23° C. and a relative atmospheric humidity of about 70%. Evaluation is carried out 10 days after the inoculation.

A further data set in a line: logP. The class given is physicochemical.

By logP is commonly meant a log measure of how a compound divides between an organic and an aqueous phase. A low value points to a more hydrophilic compound.

As for `CO/N=C(/C1=NOCCN1)c1ccccc1COc1ccccc1C` [Example I-1, 3-{1-[2-(2-methylphenoxymethyl)-phenyl]-1-(methoximino)-methyl}-5,6-dihydro-4H-1,2,4-oxadiazine], the degree of action in the data set with Venturia inaequalis was found to be 100%; in data set [1], 90%.

Take `CO/N=C(/C1=NOCCS1)c1ccccc1COc1ccccc1C` [Example I-2, 3-{1-[2-(2-methylphenoxymethyl)phenyl]-1-(methoximino)methyl}-5,6dihydro4H-1,4,2-oxathiazine]: the degree of action with Venturia inaequalis amounted to 100%; in data set [1] it was 90%; in the data set on Sphaerotheca fuliginea, 96%; with Podosphaera leucotricha it was 90%.

In “logP”, `CON=C(C1=NN(C)CCO1)c1ccccc1COc1ccccc1C` [Example I-3, 2-{1-methoximino-1-[2-(2-methylphenoxymethyl)-phenyl]-methyl}-4-methyl-5,6-dihydro4H-1,3,4oxadiazine] had a log partition coefficient (logP) of 3.54.
